Where two headings read alike, the source gives them in different places.
Legend:
GSK3β = GSK3β (Homo sapiens, UniProt P49841); assay: GSK3β kinase assay (Caliper LabChip3000 mobility shift, fluoresceinated peptide substrate); format: biochemical
Procedure: The kinase assay was performed in V-bottom 384-well plates. […] The reaction was incubated at room temperature for 20 hours and terminated by adding 45 μl of 35 mM EDTA to each sample. The reaction mixture was analyzed on the Caliper LabChip3000 (Caliper, Hopkinton, Mass.) by electrophoretic separation of the unphosphorylated substrate and phosphorylated product. […] Compounds were dissolved at 10 mM in dimethylsulfoxide (DMSO) and evaluated at eleven concentrations. IC50 values were derived by non-linear regression analysis.

GSK3α = GSK3α (Homo sapiens, UniProt P49840); assay: GSK3α kinase assay (Caliper LabChip3000 mobility shift, fluoresceinated peptide substrate)
pTau = pTau assay (no method described); format: cell-based
[1] = 250 pM enzyme, 20 uM ATP, 1.5 uM peptide, 20 hours room temperature, first value of cell GSK3β/GSK3α, read-out: GSK3β (nM), IC50

Sequence of GSK3α (P49840 whole entry, species assumed): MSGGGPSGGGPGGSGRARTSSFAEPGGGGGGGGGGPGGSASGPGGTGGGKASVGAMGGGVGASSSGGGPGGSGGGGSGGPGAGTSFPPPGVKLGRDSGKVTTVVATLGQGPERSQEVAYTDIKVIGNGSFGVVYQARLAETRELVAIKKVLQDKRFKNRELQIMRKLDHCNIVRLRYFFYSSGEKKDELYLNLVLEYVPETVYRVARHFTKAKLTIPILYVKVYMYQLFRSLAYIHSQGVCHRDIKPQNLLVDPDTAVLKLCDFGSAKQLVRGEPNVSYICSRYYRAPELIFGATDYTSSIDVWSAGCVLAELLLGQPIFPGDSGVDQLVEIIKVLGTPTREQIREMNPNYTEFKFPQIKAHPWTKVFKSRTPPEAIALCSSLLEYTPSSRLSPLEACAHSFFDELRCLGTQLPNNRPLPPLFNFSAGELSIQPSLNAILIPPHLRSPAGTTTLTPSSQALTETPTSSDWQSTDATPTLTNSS
Sequence of GSK3β (P49841 whole entry, species assumed): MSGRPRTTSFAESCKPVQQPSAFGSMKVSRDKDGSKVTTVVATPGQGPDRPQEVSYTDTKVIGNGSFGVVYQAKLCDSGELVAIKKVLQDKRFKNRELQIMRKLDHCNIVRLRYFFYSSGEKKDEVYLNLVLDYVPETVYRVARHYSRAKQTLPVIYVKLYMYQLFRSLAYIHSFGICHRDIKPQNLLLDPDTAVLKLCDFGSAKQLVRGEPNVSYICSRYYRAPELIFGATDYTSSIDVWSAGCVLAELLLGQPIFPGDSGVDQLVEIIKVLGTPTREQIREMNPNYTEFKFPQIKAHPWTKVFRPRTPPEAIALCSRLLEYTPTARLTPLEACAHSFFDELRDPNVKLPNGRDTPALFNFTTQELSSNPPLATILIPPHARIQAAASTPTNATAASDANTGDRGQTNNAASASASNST

With `CC(C)Nc1nccc(C(=O)Nc2cnccc2OCC(F)(F)F)n1` [Example 120, 2-(Isopropylamino)-N-(4-(2,2,2-trifluoroethoxy)pyridin-3-yl)pyrimidine-4-carboxamide] the IC50 (GSK3β; [1]) was 0.44 nM, the IC50 (GSK3α) was 1.4 nM and the IC50 (pTau) was 26 nM.
Compound `O=C(Nc1cnccc1OCC(F)(F)F)c1ccnc(NCc2ccc3c(c2)OCO3)n1` [Example 132, 2-((Benzo[d][1,3]dioxol-5-ylmethyl)amino)-N-(4-(2,2,2-trifluoroethoxy)pyridin-3-yl)pyrimidine-4-carboxamide] has an IC50 (GSK3β) of 1.9 nM, an IC50 (GSK3α) of 2.2 nM and an IC50 (pTau) of 220 nM.
`N#Cc1ccc(Nc2nccc(C(=O)Nc3cnccc3-c3ccc(F)cc3)n2)cc1` [Example 45, 2-((4-Cyanophenyl)amino)-N-(4-(4-fluorophenyl)pyridin-3-yl)pyrimidine-4-carboxamide] showed an IC50 (GSK3β; [1]) of 0.35 nM, an IC50 (GSK3α) of 0.29 nM and an IC50 (pTau) of 10 nM.
In the case of `CN1CCC(Nc2nccc(C(=O)Nc3cnccc3-c3ccccc3)n2)CC1` [Example 165, 2-((1-Methylpiperidin-4-yl)amino)-N-(4-phenylpyridin-3-yl)pyrimidine-4-carboxamide], the IC50 (GSK3β; [1]) is reported as 91 nM, the IC50 (GSK3α) is reported as 110 nM and the IC50 (pTau) is reported as 3300 nM.
Work on `COc1ccc(Nc2nccc(C(=O)Nc3cnccc3-c3ccccc3)n2)cc1Cl` [Example 18, 2-((3-Chloro-4-methoxyphenyl)amino)-N-(4-phenylpyridin-3-yl)pyrimidine-4-carboxamide] yielded an IC50 (GSK3β; [1]) of 0.23 nM, an IC50 (GSK3α) of 0.32 nM and an IC50 (pTau) of 37 nM.
For `O=C(Nc1cnccc1OCC(F)(F)F)c1ccnc(NCC(F)(F)F)n1` [Example 141, N-(4-(2,2,2-Trifluoroethoxy)pyridin-3-yl)-2-((2,2,2-trifluoroethyl)amino)pyrimidine-4-carboxamide], the IC50 (GSK3β; [1]) was 7.8 nM, the IC50 (GSK3α) was 8 nM and the IC50 (pTau) was 300 nM.
`CC(C)OCCCNc1nccc(C(=O)Nc2cncnc2OCC(F)(F)F)n1` [Example 74, 2-((3-Isopropoxypropyl)amino)-N-(4-(2,2,2-trifluoroethoxy)pyrimidin-5-yl)pyrimidine-4-carboxamide] gave an IC50 (GSK3β; [1]) of 5.9 nM, an IC50 (GSK3α) of 4.5 nM and an IC50 (pTau) of 890 nM.
`COc1cccc(C2CC2CNc2nccc(C(=O)Nc3cncnc3)n2)c1` (stereo not drawn) [Example 199, 2-(((2-(3-Methoxyphenyl)cyclopropyl)methyl)amino)-N-(pyrimidin-5-yl)pyrimidine-4-carboxamide] gave an IC50 (GSK3β; [1]) of 40 nM, an IC50 (GSK3α) of 33 nM and an IC50 (pTau) of 6100 nM.
`COc1ccc(Nc2nccc(C(=O)Nc3cnccc3OCC(F)(F)F)n2)cc1` [Example 52, 2-((4-Methoxyphenyl)amino)-N-(4-(2,2,2-trifluoroethoxy)pyridin-3-yl)pyrimidine-4-carboxamide] was tested, and the IC50 (GSK3β; [1]) was 0.07 nM, the IC50 (GSK3α) was 0.06 nM and the IC50 (pTau) was 6 nM.
`O=C(Nc1cnccc1-c1ccccc1)c1ccnc(NC2CCCCC2)n1` [Example 156, 2-(Cyclohexylamino)-N-(4-phenylpyridin-3-yl)pyrimidine-4-carboxamide] gave an IC50 (GSK3β) of 2.1 nM, an IC50 (GSK3α) of 1.3 nM and an IC50 (pTau) of 350 nM.
In the case of `COc1cc(Nc2nccc(C(=O)Nc3cnccc3-c3ccccc3)n2)ccn1` [Example 37, 2-((2-Methoxypyridin-4-yl)amino)-N-(4-phenylpyridin-3-yl)pyrimidine-4-carboxamide], the IC50 (GSK3β; [1]) is reported as 0.54 nM, the IC50 (GSK3α) is reported as 0.51 nM and the IC50 (pTau) is reported as 33 nM.
With `N#Cc1ccc(Nc2nccc(C(=O)Nc3cnccc3OCC(F)(F)F)n2)cc1` [Example 57, 2-((4-Cyanophenyl)amino)-N-(4-(2,2,2-trifluoroethoxy)pyridin-3-yl)pyrimidine-4-carboxamide] the IC50 (GSK3β; [1]) was 0.08 nM, the IC50 (GSK3α) was 0.07 nM and the IC50 (pTau) was 1.4 nM.
Compound `N#Cc1ccc(Nc2nccc(C(=O)Nc3cnc(F)cc3N3CCC(F)(F)CC3)n2)cc1` [Example 176, 2-((4-Cyanophenyl)amino)-N-(4-(4,4-difluoropiperidin-1-yl)-6-fluoropyridin-3-yl)pyrimidine-4-carboxamide] has an IC50 (GSK3β) of 0.32 nM, an IC50 (GSK3α) of 0.28 nM and an IC50 (pTau) of 28 nM.

— US10752609B2, “GSK-3 inhibitors” (priority 2016, dated 2020)
